Data from paper PMC6892925, “Development of Novel Silyl Cyanocinnamic Acid Derivatives as Metabolic Plasticity Inhibitors for Cancer Treatment” (Scientific Reports, 2019).
“Also recorded” adds a separate entry of the source. Where two headings read alike, the source gives them in different places.

Tests used:
MDA-MB-231 cell line = assay: MTT cell proliferation inhibition assay; details: Homo sapiens, MDA-MB-231, read-out: MTT IC50
Experimental: (§1) Human triple-negative breast cancer MDA-MB-231 cells (ATCC) were grown in DMEM supplemented with 10% FBS (Atlanta Biologicals) and penicillin-streptomycin (50U/ml, 50 µg/ml, Invitrogen). Human colorectal adenocarcinoma WiDr cells (ATCC) were cultured in MEM medium supplemented with 10% FBS and penicillin-streptomycin. […] Murine metastatic breast cancer 4T1 cells were grown in RPMI-1640 supplemented with 10% FBS and penicillin-streptomycin. Human estrogen receptor positive breast cancer MCF7 cells (Masonic Cancer Center, University of Minnesota) were grown in MEM supplemented with 6% FBS, EGF (0.01 µg/ml), NEAA, HDC (1 µg/ml), insulin (10 µg/ml), HEPES (12 mM) and sodium pyruvate (1 mM).
(§2) Cell proliferation inhibition was evaluated using 3-(4,5-dimethylthiazol-2-yl)-2,5-diphenyl tetrazolium bromide (MTT) assay as reported previously[19].

[1] = system: MCF7, 4T1, WiDr, and MDA-MB-231 cell lines; assay: MTT cell proliferation inhibition, all cell lines tested; type: cell-based; details: for cell proliferation inhibition: concentrations up to 500 µM, solubility limit above (0.1% DMSO in growth media)
Experimental: as §2

MCT1 = target: T1, MCT1 (Rattus norvegicus, UniProt P53987); assay: MCT1 inhibition assay via L-[14C]-lactate uptake in RBE4 cells; type: cell-based; details: for MCT1 inhibition properties: at the concentrations tested, RBE4 cells
T1 construct: using an L-[^14C]-lactate study on the MCT1 expressing RBE4 cell line; endogenous in cells; host or cells: RBE4 (rat brain endothelial 4) cells, a gift from F. Roux
T1 sequence (P53987 1-494): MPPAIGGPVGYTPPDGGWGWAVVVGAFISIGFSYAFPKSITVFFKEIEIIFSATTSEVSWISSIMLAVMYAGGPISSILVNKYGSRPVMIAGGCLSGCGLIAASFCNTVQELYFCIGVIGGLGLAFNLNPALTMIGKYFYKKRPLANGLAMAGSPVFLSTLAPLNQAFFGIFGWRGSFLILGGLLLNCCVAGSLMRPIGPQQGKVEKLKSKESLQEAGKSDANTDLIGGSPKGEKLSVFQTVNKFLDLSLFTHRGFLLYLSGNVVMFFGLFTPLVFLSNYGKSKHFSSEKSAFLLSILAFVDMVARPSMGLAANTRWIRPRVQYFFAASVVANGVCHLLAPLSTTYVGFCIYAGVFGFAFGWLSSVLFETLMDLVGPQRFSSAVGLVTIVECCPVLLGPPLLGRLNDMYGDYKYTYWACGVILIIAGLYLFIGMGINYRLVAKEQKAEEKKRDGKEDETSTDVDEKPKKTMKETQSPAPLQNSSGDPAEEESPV

WiDr cell line = assay: MTT cell proliferation inhibition assay; details: Homo sapiens, read-out: MTT IC50
Experimental: as §1, §2

4T1 cell line = assay: MTT cell proliferation inhibition assay; details: Mus musculus, 4T1, read-out: MTT IC50
Experimental: as §1, §2

MCF7 cell line = assay: MTT cell proliferation inhibition assay; details: Homo sapiens, MCF7, read-out: MTT IC50
Experimental: as §1, §2

WiDr cells = assay: Western blot analysis of cell damage and death markers; type: cell-based, human; details: WiDr cultures treated with 2a plus NAC
Experimental: Owing to the enhanced antiproliferative effects induced by test compound 2a when compared to CHC, western blot analysis of cell damage and death markers was performed. The master transcription factor p53 regulates the expression of numerous genes involved in cancer progression and is responsible for balancing proliferation and apoptosis. In this regard, we evaluated the effects of compound treatment on p53 expression. Literature reports indicate that MDA-MB-231 and WiDr cells express distinct homozygous mutant forms of p53 that promote an aggressive malignant phenotype with resistance to apoptosis[36],[37]. […] Further, PARP1 is involved in the DNA repair pathway through sensing DNA-strand breaks and recruiting repair enzymes. Importantly, PARP1 is a target of caspase cleavage under apoptotic conditions, and the appearance of the PARP1 cleavage product is a widely used indicator of cellular apoptosis. […] Additionally, DNA damage may be a downstream effect of apoptotic nuclease activity or an increase in reactive oxygen species (ROS) from damaged mitochondria; as illustrated in microscopy and seahorse experiments. Histone 2AX phosphorylation (γH2AX) resulting from DNA single- and double-strand breaks is a widely employed marker for DNA damage. In this regard, we investigated the effect of 2a on DNA damage marker γH2AX (phosphorylated Ser139, histone H2AX) with a phospho-specific antibody. […] Due to the potential of ROS leading to DNA damage and H2AX phosphorylation, we investigated the ability of antioxidant N-acetyl cysteine (NAC) to inhibit DNA damage of compound 2a as evidenced by H2AX phosphorylation in the highly oxidative cell line WiDr (Fig. 4A).
50,000 WiDr or MDA-MB-231 cells were seeded in 100 mm dishes and were incubated for 48 hours. Cells were then treated with test compounds for 24 hours, washed twice with 1X PBS, solubilized in 200 μL SDS boiling buffer (5% w/v SDS, 10% v/v glycerol, and 60 mM Tris pH 6.8), and sonicated. The resulting cell lysate was then assayed for protein using the Pierce BCA protocol. A volume of test sample containing 10 μg protein was loaded on SDS PAGE gel for electrophoresis according to manufacturer’s instructions. Proteins were transferred from the gel to nitrocellulose membrane according to the manufacturer’s instructions. Membranes were blocked for 1 hr at 35 °C using 10% (w/v) non-fat milk in PBST and were exposed to primary antibody. PARP1 (rabbit polyclonal IgG, Origene, TA321555), p53 (rabbit polyclonal IgG, Santa Cruz, sc50329), and γ-H2AX (Upstate 05-636, 1:2500) were detected and visualized using HRP chemiluminescence. For relative quantitation, β-actin (mouse monoclonal IgG C4, Millipore, MAB1501, 1:10,000) and GAPDH (mouse monoclonal IgG, Santa Cruz, sc47724, 1:100) were detected and measured as a control protein.

[2] = L-[14C]-lactate uptake, MCT1 expressing RBE4 cell line, average ± SEM of three separate experiments, read-out: MCT1 IC50

Structure (SMILES): N#C/C(=C\c1ccc(OCCO)cc1)C(=O)O [2c]
- IC50 (MDA-MB-231 cell line): > 500 µM
- cell proliferation inhibition [1]: did not show significant cell proliferation inhibition; also recorded: did not exhibit any cell proliferation inhibition properties
- IC50 (MCT1; [2]): > 5 µM
- MCT1 inhibition properties (MCT1): did not exhibit MCT1 inhibition properties
- IC50 (WiDr cell line): > 500 µM
- IC50 (4T1 cell line): > 500 µM
- IC50 (MCF7 cell line): > 500 µM

Structure (SMILES): N#C/C(=C\c1ccc(OCCBr)cc1)C(=O)O [2d]
- IC50 (MDA-MB-231 cell line): > 500 µM
- cell proliferation inhibition [1]: did not show significant cell proliferation inhibition; also recorded: did not exhibit any cell proliferation inhibition properties
- IC50 (MCT1; [2]): > 5 µM
- MCT1 inhibition properties (MCT1): did not exhibit MCT1 inhibition properties
- IC50 (WiDr cell line): > 500 µM
- IC50 (4T1 cell line): > 500 µM
- IC50 (MCF7 cell line): > 500 µM

Structure (SMILES): N#CC(=Cc1ccc(O)cc1)C(=O)O [CHC 1, α-cyano-4-hydroxycinnamic acid, reference compound]
- IC50 (MDA-MB-231 cell line): 5300 ± 130 µM
- IC50 ([1]; read-out: MTT IC50 values, span over all the cell lines tested): 1100 to 5300 µM
- IC50 (MCT1): > 150 µM
- concentration at which MCT1 function is inhibited (MCT1; lactate uptake assay, discussion statement): ≥ 150 µM
- IC50 (WiDr cell line): 1100 ± 96 µM
- IC50 (4T1 cell line): 3600 ± 300 µM
- IC50 (MCF7 cell line): 4000 ± 130 µM

Structure (SMILES): CC(=O)N[C@@H](CS)C(=O)O [NAC, N-acetyl cysteine, reference compound]
- effect on 2a-induced H2AX activation (WiDr cells): significantly reduced
- effect on 2a-induced PARP1 cleavage (WiDr cells): did not reverse PARP1 cleavage
